Test results as given in patent publication US20240300932A1, “N-PHENYLIMINE DERIVATIVE AND PREPARATION METHOD AND USE THEREOF” (Guizhou University, priority 2023, published 2024).

Key:
Assay in all cases: Post-emergence herbicidal activity test (stem and leaf spray, pot culture)
Type in all cases: in vivo
Conditions in all cases: 3 weeks after spraying
Abutilon theophrasti = tested on: Abutilon theophrasti
Procedure, shortened: (§1)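 Seeds soaked 6 h at 25 °C, germinated at 28 °C, sown in loam pots and thinned to 10 plants/pot. At 2–3 leaves, plants received a single spray-tower application of 10, 5 or 2.5 g/mu. Fresh-weight control was graded 0–5 after 3 weeks.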

Amaranthus retroflexus = tested on: Amaranthus retroflexus
Procedure, shortened: as §1

Echinochloa crusgalli = tested on: Echinochloa crusgalli
Procedure, shortened: as §1

Portulaca oleracea = tested on: Portulaca oleracea
Procedure, shortened: as §1

Setaria viridis = tested on: Setaria viridis
Procedure, shortened: as §1

Trifoliumre pensL. = tested on: Trifoliumre pensL.
Procedure, shortened: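 Rates of 10, 5 and 2.5 g/mu were applied in a single spray-tower treatment to 2–3-leaf plants, thinned to 10 per pot. Formulation: acetone solution, Tween 80, 1.5 L/ha methyl oleate synergist. Weed response assessed after 3 further greenhouse weeks; mean of three experiments.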

## O=C1C2=C(CCCC2)C(=O)N1c1cc(OCc2nnc(-c3ccccc3Br)o2)c(Cl)cc1F [Compound B6]
Abutilon theophrasti; dosage 2.5 g/mu
  Post-emergence herbicidal activity, A. theophrasti (grade): 5 (Grade 5: the growth control rate is greater than or equal to 85%)
Abutilon theophrasti; dosage 5 g/mu
  Post-emergence herbicidal activity, A. theophrasti (grade): 5 (Grade 5: the growth control rate is greater than or equal to 85%)
Abutilon theophrasti; dosage 10 g/mu
  Post-emergence herbicidal activity, A. theophrasti (grade): 5 (Grade 5: the growth control rate is greater than or equal to 85%)
Amaranthus retroflexus; dosage 2.5 g/mu
  Post-emergence herbicidal activity, A. retroflexus (grade): 5 (Grade 5: the growth control rate is greater than or equal to 85%)
Amaranthus retroflexus; dosage 5 g/mu
  Post-emergence herbicidal activity, A. retroflexus (grade): 5 (Grade 5: the growth control rate is greater than or equal to 85%)
Amaranthus retroflexus; dosage 10 g/mu
  Post-emergence herbicidal activity, A. retroflexus (grade): 5 (Grade 5: the growth control rate is greater than or equal to 85%)
Echinochloa crusgalli; dosage 2.5 g/mu
  Post-emergence herbicidal activity, E. crusgalli (grade): 1 (Grade 1: the growth control rate is greater than or equal to 5% and less than 20%)
Echinochloa crusgalli; dosage 5 g/mu
  Post-emergence herbicidal activity, E. crusgalli (grade): 2 (Grade 2: the growth control rate is greater than or equal to 20% and less than 40%)
Echinochloa crusgalli; dosage 10 g/mu
  Post-emergence herbicidal activity, E. crusgalli (grade): 3 (Grade 3: the growth control rate is greater than or equal to 40% and less than 60%)
Portulaca oleracea; dosage 2.5 g/mu
  Post-emergence herbicidal activity, P. oleracea (grade): 5 (Grade 5: the growth control rate is greater than or equal to 85%)
Portulaca oleracea; dosage 5 g/mu
  Post-emergence herbicidal activity, P. oleracea (grade): 5 (Grade 5: the growth control rate is greater than or equal to 85%)
Portulaca oleracea; dosage 10 g/mu
  Post-emergence herbicidal activity, P. oleracea (grade): 5 (Grade 5: the growth control rate is greater than or equal to 85%)
Setaria viridis; dosage 2.5 g/mu
  Post-emergence herbicidal activity, S. viridis (grade): 2 (Grade 2: the growth control rate is greater than or equal to 20% and less than 40%)
Setaria viridis; dosage 5 g/mu
  Post-emergence herbicidal activity, S. viridis (grade): 3 (Grade 3: the growth control rate is greater than or equal to 40% and less than 60%)
Setaria viridis; dosage 10 g/mu
  Post-emergence herbicidal activity, S. viridis (grade): 4 (Grade 4: the growth control rate is greater than or equal to 60% and less than 85%)
Trifoliumre pensL.; dosage 2.5 g/mu
  Post-emergence herbicidal activity, Trifoliumre pensL. (grade): 5 (Grade 5: the growth control rate is greater than or equal to 85%)
Trifoliumre pensL.; dosage 5 g/mu
  Post-emergence herbicidal activity, Trifoliumre pensL. (grade): 5 (Grade 5: the growth control rate is greater than or equal to 85%)
Trifoliumre pensL.; dosage 10 g/mu
  Post-emergence herbicidal activity, Trifoliumre pensL. (grade): 5 (Grade 5: the growth control rate is greater than or equal to 85%)

## O=C1C2=C(CCCC2)C(=O)N1c1cc(OCc2nnc(-c3ccccc3I)o2)c(Cl)cc1F [Compound B7]
Abutilon theophrasti; dosage 2.5 g/mu
  Post-emergence herbicidal activity, A. theophrasti (grade): 5 (Grade 5: the growth control rate is greater than or equal to 85%)
Abutilon theophrasti; dosage 5 g/mu
  Post-emergence herbicidal activity, A. theophrasti (grade): 5 (Grade 5: the growth control rate is greater than or equal to 85%)
Abutilon theophrasti; dosage 10 g/mu
  Post-emergence herbicidal activity, A. theophrasti (grade): 5 (Grade 5: the growth control rate is greater than or equal to 85%)
Amaranthus retroflexus; dosage 2.5 g/mu
  Post-emergence herbicidal activity, A. retroflexus (grade): 5 (Grade 5: the growth control rate is greater than or equal to 85%)
Amaranthus retroflexus; dosage 5 g/mu
  Post-emergence herbicidal activity, A. retroflexus (grade): 5 (Grade 5: the growth control rate is greater than or equal to 85%)
Amaranthus retroflexus; dosage 10 g/mu
  Post-emergence herbicidal activity, A. retroflexus (grade): 5 (Grade 5: the growth control rate is greater than or equal to 85%)
Echinochloa crusgalli; dosage 2.5 g/mu
  Post-emergence herbicidal activity, E. crusgalli (grade): 1 (Grade 1: the growth control rate is greater than or equal to 5% and less than 20%)
Echinochloa crusgalli; dosage 5 g/mu
  Post-emergence herbicidal activity, E. crusgalli (grade): 2 (Grade 2: the growth control rate is greater than or equal to 20% and less than 40%)
Echinochloa crusgalli; dosage 10 g/mu
  Post-emergence herbicidal activity, E. crusgalli (grade): 3 (Grade 3: the growth control rate is greater than or equal to 40% and less than 60%)
Portulaca oleracea; dosage 2.5 g/mu
  Post-emergence herbicidal activity, P. oleracea (grade): 5 (Grade 5: the growth control rate is greater than or equal to 85%)
Portulaca oleracea; dosage 5 g/mu
  Post-emergence herbicidal activity, P. oleracea (grade): 5 (Grade 5: the growth control rate is greater than or equal to 85%)
Portulaca oleracea; dosage 10 g/mu
  Post-emergence herbicidal activity, P. oleracea (grade): 5 (Grade 5: the growth control rate is greater than or equal to 85%)
Setaria viridis; dosage 2.5 g/mu
  Post-emergence herbicidal activity, S. viridis (grade): 2 (Grade 2: the growth control rate is greater than or equal to 20% and less than 40%)
Setaria viridis; dosage 5 g/mu
  Post-emergence herbicidal activity, S. viridis (grade): 3 (Grade 3: the growth control rate is greater than or equal to 40% and less than 60%)
Setaria viridis; dosage 10 g/mu
  Post-emergence herbicidal activity, S. viridis (grade): 4 (Grade 4: the growth control rate is greater than or equal to 60% and less than 85%)
Trifoliumre pensL.; dosage 2.5 g/mu
  Post-emergence herbicidal activity, Trifoliumre pensL. (grade): 5 (Grade 5: the growth control rate is greater than or equal to 85%)
Trifoliumre pensL.; dosage 5 g/mu
  Post-emergence herbicidal activity, Trifoliumre pensL. (grade): 5 (Grade 5: the growth control rate is greater than or equal to 85%)
Trifoliumre pensL.; dosage 10 g/mu
  Post-emergence herbicidal activity, Trifoliumre pensL. (grade): 5 (Grade 5: the growth control rate is greater than or equal to 85%)

## O=C1C2=C(CCCC2)C(=O)N1c1cc(OCc2nnc(-c3ccccc3[N+](=O)[O-])o2)c(Cl)cc1F [Compound B8]
Abutilon theophrasti; dosage 2.5 g/mu
  Post-emergence herbicidal activity, A. theophrasti (grade): 5 (Grade 5: the growth control rate is greater than or equal to 85%)
Abutilon theophrasti; dosage 5 g/mu
  Post-emergence herbicidal activity, A. theophrasti (grade): 5 (Grade 5: the growth control rate is greater than or equal to 85%)
Abutilon theophrasti; dosage 10 g/mu
  Post-emergence herbicidal activity, A. theophrasti (grade): 5 (Grade 5: the growth control rate is greater than or equal to 85%)
Amaranthus retroflexus; dosage 2.5 g/mu
  Post-emergence herbicidal activity, A. retroflexus (grade): 5 (Grade 5: the growth control rate is greater than or equal to 85%)
Amaranthus retroflexus; dosage 5 g/mu
  Post-emergence herbicidal activity, A. retroflexus (grade): 5 (Grade 5: the growth control rate is greater than or equal to 85%)
Amaranthus retroflexus; dosage 10 g/mu
  Post-emergence herbicidal activity, A. retroflexus (grade): 5 (Grade 5: the growth control rate is greater than or equal to 85%)
Echinochloa crusgalli; dosage 2.5 g/mu
  Post-emergence herbicidal activity, E. crusgalli (grade): 1 (Grade 1: the growth control rate is greater than or equal to 5% and less than 20%)
Echinochloa crusgalli; dosage 5 g/mu
  Post-emergence herbicidal activity, E. crusgalli (grade): 2 (Grade 2: the growth control rate is greater than or equal to 20% and less than 40%)
Echinochloa crusgalli; dosage 10 g/mu
  Post-emergence herbicidal activity, E. crusgalli (grade): 3 (Grade 3: the growth control rate is greater than or equal to 40% and less than 60%)
Portulaca oleracea; dosage 2.5 g/mu
  Post-emergence herbicidal activity, P. oleracea (grade): 5 (Grade 5: the growth control rate is greater than or equal to 85%)
Portulaca oleracea; dosage 5 g/mu
  Post-emergence herbicidal activity, P. oleracea (grade): 5 (Grade 5: the growth control rate is greater than or equal to 85%)
Portulaca oleracea; dosage 10 g/mu
  Post-emergence herbicidal activity, P. oleracea (grade): 5 (Grade 5: the growth control rate is greater than or equal to 85%)
Setaria viridis; dosage 2.5 g/mu
  Post-emergence herbicidal activity, S. viridis (grade): 2 (Grade 2: the growth control rate is greater than or equal to 20% and less than 40%)
Setaria viridis; dosage 5 g/mu
  Post-emergence herbicidal activity, S. viridis (grade): 3 (Grade 3: the growth control rate is greater than or equal to 40% and less than 60%)
Setaria viridis; dosage 10 g/mu
  Post-emergence herbicidal activity, S. viridis (grade): 4 (Grade 4: the growth control rate is greater than or equal to 60% and less than 85%)
Trifoliumre pensL.; dosage 2.5 g/mu
  Post-emergence herbicidal activity, Trifoliumre pensL. (grade): 5 (Grade 5: the growth control rate is greater than or equal to 85%)
Trifoliumre pensL.; dosage 5 g/mu
  Post-emergence herbicidal activity, Trifoliumre pensL. (grade): 5 (Grade 5: the growth control rate is greater than or equal to 85%)
Trifoliumre pensL.; dosage 10 g/mu
  Post-emergence herbicidal activity, Trifoliumre pensL. (grade): 5 (Grade 5: the growth control rate is greater than or equal to 85%)

## O=C1C2=C(CCCC2)C(=O)N1c1cc(OCc2nnc(-c3cccc(Br)c3)o2)c(Cl)cc1F [Compound B10]
Abutilon theophrasti; dosage 2.5 g/mu
  Post-emergence herbicidal activity, A. theophrasti (grade): 4 (Grade 4: the growth control rate is greater than or equal to 60% and less than 85%)
Abutilon theophrasti; dosage 5 g/mu
  Post-emergence herbicidal activity, A. theophrasti (grade): 5 (Grade 5: the growth control rate is greater than or equal to 85%)
Abutilon theophrasti; dosage 10 g/mu
  Post-emergence herbicidal activity, A. theophrasti (grade): 5 (Grade 5: the growth control rate is greater than or equal to 85%)
Amaranthus retroflexus; dosage 2.5 g/mu
  Post-emergence herbicidal activity, A. retroflexus (grade): 4 (Grade 4: the growth control rate is greater than or equal to 60% and less than 85%)
Amaranthus retroflexus; dosage 5 g/mu
  Post-emergence herbicidal activity, A. retroflexus (grade): 5 (Grade 5: the growth control rate is greater than or equal to 85%)
Amaranthus retroflexus; dosage 10 g/mu
  Post-emergence herbicidal activity, A. retroflexus (grade): 5 (Grade 5: the growth control rate is greater than or equal to 85%)
Echinochloa crusgalli; dosage 2.5 g/mu
  Post-emergence herbicidal activity, E. crusgalli (grade): 1 (Grade 1: the growth control rate is greater than or equal to 5% and less than 20%)
Echinochloa crusgalli; dosage 5 g/mu
  Post-emergence herbicidal activity, E. crusgalli (grade): 2 (Grade 2: the growth control rate is greater than or equal to 20% and less than 40%)
Echinochloa crusgalli; dosage 10 g/mu
  Post-emergence herbicidal activity, E. crusgalli (grade): 3 (Grade 3: the growth control rate is greater than or equal to 40% and less than 60%)
Portulaca oleracea; dosage 2.5 g/mu
  Post-emergence herbicidal activity, P. oleracea (grade): 5 (Grade 5: the growth control rate is greater than or equal to 85%)
Portulaca oleracea; dosage 5 g/mu
  Post-emergence herbicidal activity, P. oleracea (grade): 5 (Grade 5: the growth control rate is greater than or equal to 85%)
Portulaca oleracea; dosage 10 g/mu
  Post-emergence herbicidal activity, P. oleracea (grade): 5 (Grade 5: the growth control rate is greater than or equal to 85%)
Setaria viridis; dosage 2.5 g/mu
  Post-emergence herbicidal activity, S. viridis (grade): 2 (Grade 2: the growth control rate is greater than or equal to 20% and less than 40%)
Setaria viridis; dosage 5 g/mu
  Post-emergence herbicidal activity, S. viridis (grade): 3 (Grade 3: the growth control rate is greater than or equal to 40% and less than 60%)
Setaria viridis; dosage 10 g/mu
  Post-emergence herbicidal activity, S. viridis (grade): 4 (Grade 4: the growth control rate is greater than or equal to 60% and less than 85%)
Trifoliumre pensL.; dosage 2.5 g/mu
  Post-emergence herbicidal activity, Trifoliumre pensL. (grade): 5 (Grade 5: the growth control rate is greater than or equal to 85%)
Trifoliumre pensL.; dosage 5 g/mu
  Post-emergence herbicidal activity, Trifoliumre pensL. (grade): 5 (Grade 5: the growth control rate is greater than or equal to 85%)
Trifoliumre pensL.; dosage 10 g/mu
  Post-emergence herbicidal activity, Trifoliumre pensL. (grade): 5 (Grade 5: the growth control rate is greater than or equal to 85%)
